Data: patent US20120316062A1 (priority 2009, published 2012)
Read-outs that look alike come from different tables or passages of the source.

Experiments:
Alternaria solani = assay: Activity against Alternaria solani in the microtiterplate test; type: cell-based; details: single active, growth at 405 nm 7 days after inoculation, 18° C
Pyricularia oryzae = type: cell-based; details: single active, growth at 405 nm 7 days after inoculation, 18° C

SMILES	Observed efficacy (Alternaria solani; 16 ppm)	Observed efficacy (Pyricularia oryzae; 1 ppm)	Observed efficacy (Alternaria solani; 0.063 ppm)	Observed efficacy (Pyricularia oryzae; 0.004 ppm)
O=C(NC(=O)c1c(F)cccc1F)Nc1ccc(Oc2ccc(C(F)(F)F)cc2Cl)cc1F [flufenoxuron]	0	6		
COC(=O)N(OC)c1ccccc1COc1ccn(-c2ccc(Cl)cc2)n1 [pyraclostrobin]			56	23
